According to patent US20250387425A1 (ANDA BIOLOGY MEDICINE DEVELOPMENT (SHENZHEN) CO., LTD., priority 2022, published 2025):

Key:
[1] = tested on: MX1; assay: Knock down of MX1 in PBMCs by siRNA, qPCR and tumor killing; type: cell-based, human; settings: MX1 depletion by siRNA vs negative control oligonucleotides
Procedure: PBMCs were cultured in X-VIVO 15 medium (Lonza) supplemented with 10% Fetal Bovine Serum (Gemini), Penicillin-Streptomycin (Gibco), Antibiotic-Antimycotic (Gibco), 20 ng/ml recombinant human IL-7 (R&D), 50 U/ml recombinant human IL-2 (R&D) for one week. Then, TransIT-TKO kit (Mirus) was used to transient transfect MX1 siRNA into PBMCs. After 3 days of culture at 37° C., PBMCs were collected. A part of PBMCs co-incubated with tumor cells to test the killing effect of PBMCs after siRNA interference. The other part of PBMCs was extracted RNA with AllPrep DNA/RNA Kits (QIAGEN) and reverse transcription to cDNA with PrimeScript RT reagent Kit (Takara), and then used NovoStart SYBR qPCR SuperMix Plus (Novoprotein) performs qPCR to verify the efficiency of siRNA interference. The relative expressions of MX1 gene at the mRNA level was calculated by the 2-ΔΔCt method. GAPDH was used as a housekeeping gene.

[2] = tested on: neoantigen-specific T-cell clones in blood; assay: DNA-barcoded neoantigen-peptide-MHC tetramers with single-cell TCR sequencing (patient P6); type: cell-based, human; settings: blood of patient P6

| Substance | anti-tumor ability of immune cells in PBMC [1] | tetramer-positive T-cell clones (peptide-MHC HLA-A*11:01 tetramer) [2] |
| --- | --- | --- |
| 5′-GCTTTGTGAATTACAGGACAT-3′ (only one strand given, further chemistry not given here) [MX1 siRNA, siRNA transiently transfected into PBMCs to knock down MX1] | remarkably impaired |  |
| YVECGKAFK [neoantigen-peptide-85-epitopel] |  | No tetramer-positive T-cell clones |
